Experimental data reported in patent publication US7713937B2, “Synthetic peptide amides and dimeric forms thereof” (Cara Therapeutics, Inc., priority 2006, dated 2010).
pEC50: −log10 of the molar value. Square brackets hold non-standard residues; d marks the D form. Side chains are listed from the residue outwards. Peptide text beside a SMILES is read from it. dOrn = NCCC[C@@H](N)C(=O)O

Columns and labels:
[1] = biological target: T1, mouse kappa opioid receptor (mKOR) (Mus musculus, UniProt P33534); assay: cell-based; conditions: for Emax: read-out: mKOR Efficacy(%)
T1 construct: Stimulation of Endogenous Mouse Kappa-Opioid Receptor in R1.G1 Cells; host or cells: R1.G1 mouse thymoma cells

[2] = biological target: T2, human kappa opioid receptor (hKOR) (Homo sapiens, UniProt P41145); assay: cell-based; conditions: for Emax: HEK293, read-out: hKOR Efficacy(%)
T2 construct: expressed in transfected cells; host or cells: HEK-293 cells, transient transfection with Fugene6
T2 sequence (P41145 whole entry): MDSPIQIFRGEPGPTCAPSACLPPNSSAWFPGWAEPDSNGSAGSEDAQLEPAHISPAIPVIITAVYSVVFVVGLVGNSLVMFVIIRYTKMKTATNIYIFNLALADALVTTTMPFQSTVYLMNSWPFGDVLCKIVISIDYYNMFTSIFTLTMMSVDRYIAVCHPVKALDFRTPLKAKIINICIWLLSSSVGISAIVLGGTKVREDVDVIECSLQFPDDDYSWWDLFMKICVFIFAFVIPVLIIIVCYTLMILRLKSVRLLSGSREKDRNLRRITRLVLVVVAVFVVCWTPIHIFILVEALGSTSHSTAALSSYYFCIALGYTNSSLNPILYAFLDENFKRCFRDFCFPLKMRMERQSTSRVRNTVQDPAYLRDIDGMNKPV

T1 sequence (P33534 whole entry): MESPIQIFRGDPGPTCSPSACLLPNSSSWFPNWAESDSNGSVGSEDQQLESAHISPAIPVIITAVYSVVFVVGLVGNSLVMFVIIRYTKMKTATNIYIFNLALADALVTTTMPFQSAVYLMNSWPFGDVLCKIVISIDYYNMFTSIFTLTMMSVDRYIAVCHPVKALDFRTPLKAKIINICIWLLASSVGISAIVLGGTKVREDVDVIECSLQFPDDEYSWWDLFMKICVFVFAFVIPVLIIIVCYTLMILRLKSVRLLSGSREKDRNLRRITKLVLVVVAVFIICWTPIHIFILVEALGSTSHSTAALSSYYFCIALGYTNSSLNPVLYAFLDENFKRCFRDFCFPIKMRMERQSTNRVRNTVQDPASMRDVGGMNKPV

Compound	pEC50 [1]	Emax [1] [%]	pEC50 [2]	Emax [2] [%]
CC(C)C[C@@H](NC(=O)[C@@H](Cc1ccccc1)NC(=O)[C@H](N)Cc1ccccc1)C(=O)N[C@H](CCCN)C(=O)N1CCC(N2CCC[C@H]2C(N)=O)CC1 [Compound (50), D-Phe-D-Phe-D-Leu-D-Orn-[N-(4-piperidinyl)-L-proline]-NH2]	10.66	96	9.72	
CCN1CCCN(C(=O)[C@@H](CCCN)NC(=O)[C@@H](CC(C)C)NC(=O)[C@@H](Cc2ccccc2)NC(=O)[C@H](N)Cc2ccccc2)CC1 [Compound (55), D-Phe-D-Phe-D-Leu-D-Orn-[4-ethylhomopiperazine amide]]	10.31	99	9.85	93
CC(C)C[C@@H](NC(=O)[C@@H](Cc1ccccc1)NC(=O)[C@H](N)Cc1ccccc1)C(=O)N[C@H](CCCN)C(=O)N1CCCNCC1 [Compound (56), D-Phe-D-Phe-D-Leu-D-Orn-[homopiperazine amide]]	10.10	100	9.66	
CNCCC[C@@H](NC(=O)[C@@H](CC(C)C)NC(=O)[C@@H](Cc1ccccc1)NC(=O)[C@H](N)Cc1ccccc1)C(=O)N1CCCN(C(=N)N)CC1 [Compound (57), D-Phe-D-Phe-D-Leu-(δ-Me)D-Orn-[4-amidinohomopiperazine amide]]	10.11	97	10.05	101
CC(C)C[C@@H](NC(=O)[C@@H](Cc1ccccc1)NC(=O)[C@H](N)Cc1ccccc1)C(=O)N[C@H](CCCNC(C)C)C(=O)N1CCC(N)(C(=O)O)CC1 [Compound (58), D-Phe-D-Phe-D-Leu-(δ-iPr)D-Orn-[ω(4-aminopiperidine-4-carboxylic acid)]-OH]	9.71	92	9.92	
CC(C)C[C@@H](NC(=O)[C@@H](Cc1ccccc1)NC(=O)[C@H](N)Cc1ccccc1)C(=O)N[C@H](CCCNC(C)C)C(=O)N1CCCN(C(=N)N)CC1 [Compound (59), D-Phe-D-Phe-D-Leu-(δ-iPr)D-Orn-[4-amidinohomopiperazine amide]]	10.09	97	10.10	100
CNCCC[C@@H](NC(=O)[C@@H](CC(C)C)NC(=O)[C@@H](Cc1ccccc1)NC(=O)[C@H](N)Cc1ccccc1)C(=O)N1CCCNCC1 [Compound (60), D-Phe-D-Phe-D-Leu-(δ-Me)D-Orn-[homopiperazine amide]]	10.35	95	10.05	106
CC(C)C[C@@H](NC(=O)[C@@H](Cc1ccccc1)NC(=O)[C@H](N)Cc1ccccc1)C(=O)N[C@H](CCCNC(C)C)C(=O)N1CCCNCC1 [Compound (61), D-Phe-D-Phe-D-Leu-(δ-iPr)D-Orn-[homopiperazine amide]]	10.48	96	10.15	98
CC(C)C[C@@H](NC(=O)[C@@H](Cc1ccccc1)NC(=O)[C@H](N)Cc1ccccc1)C(=O)N[C@H](CCCCN)C(=O)NCC1OCCO1 [Compound (62)]	9.83	85	10.68	98
CC(C)C[C@@H](NC(=O)[C@@H](Cc1ccccc1)NC(=O)[C@H](N)Cc1ccccc1)C(=O)N[C@H](CCCCN)C(=O)N1CCN(c2ncccn2)CC1 [Compound (63), D-Phe-D-Phe-D-Leu-D-Lys-[2-(piperazin-1-yl)pyrimidine amide]]	9.92	78	11.14	98
CC(C)C[C@@H](NC(=O)[C@@H](Cc1ccccc1)NC(=O)[C@H](N)Cc1ccccc1)C(=O)N[C@H](CCCCN)C(=O)N1CCN(c2cnccn2)CC1 [Compound (64), D-Phe-D-Phe-D-Leu-D-Lys-[2-(piperazin-1-yl)pyrazine amide]]		85	10.53	100
CC(C)C[C@@H](NC(=O)[C@@H](Cc1ccccc1)NC(=O)[C@H](N)Cc1ccccc1)C(=O)N[C@H](CCCCN)C(=O)N1CCN(c2ccccn2)CC1 [Compound (65), D-Phe-D-Phe-D-Leu-D-Lys-[1-(pyridin-2-yl)piperazine amide]]	10.33	89	11.23	100
CC(C)C[C@@H](NC(=O)[C@@H](Cc1ccccc1)NC(=O)[C@H](N)Cc1ccccc1)C(=O)N[C@H](CCCCN)C(=O)N1CCN(c2nccs2)CC1 [Compound (66), D-Phe-D-Phe-D-Leu-D-Lys-[2-(piperazin-1-yl)thiazole amide]]	10.08	85	10.51	92
CC(C)C[C@@H](NC(=O)[C@@H](Cc1ccccc1)NC(=O)[C@H](N)Cc1ccccc1)C(=O)N[C@H](CCCCN)C(=O)N1CCN(S(=O)(=O)N(C)C)CC1 [Compound (67), D-Phe-D-Phe-D-Leu-D-Lys-[N,N-dimethylpiperazine-1-sulfonamide amide]]	9.71	86	10.71	101
CC(C)C[C@@H](NC(=O)[C@@H](Cc1ccccc1)NC(=O)[C@H](N)Cc1ccccc1)C(=O)N[C@H](CCCCN)C(=O)N1CCN(S(C)(=O)=O)CC1 [Compound (68), D-Phe-D-Phe-D-Leu-D-Lys-[1-(methylsulfonyl)piperazine amide]]	9.61	82	11.14	100
CC(C)C[C@@H](NC(=O)[C@@H](Cc1ccccc1)NC(=O)[C@H](N)Cc1ccccc1)C(=O)N[C@H](CCCCN)C(=O)N1CCN(S(=O)(=O)c2ccccc2)CC1 [Compound (69), D-Phe-D-Phe-D-Leu-D-Lys-[1-(phenylsulfonyl)piperazine amide]]	9.28	87	10.96	101
CC(C)C[C@@H](NC(=O)[C@@H](Cc1ccccc1)NC(=O)[C@H](N)Cc1ccccc1)C(=O)N[C@H](CCCCN)C(=O)N1CCN(C(=O)c2ccccc2)CC1 [Compound (70), D-Phe-D-Phe-D-Leu-D-Lys-[phenyl(piperazin-1-yl)methanone amide]]	9.46	92	10.92	94
CC(C)C[C@@H](NC(=O)[C@@H](Cc1ccccc1)NC(=O)[C@H](N)Cc1ccccc1)C(=O)N[C@H](CCCCN)C(=O)N1CCS(=O)(=O)CC1 [Compound (71), D-Phe-D-Phe-D-Leu-D-Lys-[thiolmorpholine-1,1-dioxide amide]]	9.72	89	10.51	103
CC(C)C[C@@H](NC(=O)[C@@H](Cc1ccccc1)NC(=O)[C@H](N)Cc1ccccc1)C(=O)N[C@H](CCCCN)C(=O)NCc1ccc(C(F)(F)F)nc1 [Compound (72), D-Phe-D-Phe-D-Leu-D-Lys-[6-trifluoromethyl-3-aminomethylpyridine amide]]	9.31	85	10.18	95
CC(C)C[C@@H](NC(=O)[C@@H](Cc1ccccc1)NC(=O)[C@H](N)Cc1ccccc1)C(=O)N[C@H](CCCCN)C(=O)NCC1CCOCC1 [Compound (73)]	9.20	89	11.47	99
CC(C)C[C@@H](NC(=O)[C@@H](Cc1ccccc1)NC(=O)[C@H](N)Cc1ccccc1)C(=O)N[C@H](CCCCN)C(=O)NCc1ccc2[nH]c(=O)[nH]c2c1 [Compound (74), D-Phe-D-Phe-D-Leu-D-Lys-[5-(aminomethyl)-1H-benzo[d]imidazol-2(3H)-one amide]]	10.14	87	11.20	99
CC(C)C[C@@H](N)C(=O)N[C@H](CCCN)C(=O)N[C@@H](CCCCNC(=O)[C@@H](CCCN)NC(=O)[C@@H](CC(C)C)NC(=O)[C@@H](Cc1ccccc1)NC(=O)[C@H](N)Cc1ccccc1)C(=O)O [Compound (76), D-Phe-D-Phe-D-Leu-D-Orn-[eLys(D-Orn-D-Leu-H)]-OH]	8.97	96	9.59	83
CC(C)C[C@@H](NC(=O)[C@H](N)Cc1ccccc1)C(=O)N[C@H](CCCN)C(=O)N[C@@H](CCCCNC(=O)[C@@H](CCCN)NC(=O)[C@@H](CC(C)C)NC(=O)[C@@H](Cc1ccccc1)NC(=O)[C@H](N)Cc1ccccc1)C(=O)O [Compound (78)]	9.62			95
CC(C)C[C@@H](NC(=O)[C@@H](Cc1ccccc1)NC(=O)[C@H](N)Cc1ccccc1)C(=O)N[C@H](CCCN)C(=O)NCCCC[C@H](NC(=O)[C@H](N)CCCN)C(=O)O [Compound (79)]	10.10	101	9.89	
CC(C)C[C@@H](NC(=O)[C@@H](Cc1ccccc1)NC(=O)[C@H](N)Cc1ccccc1)C(=O)N[C@H](CCCN)C(=O)NCCCC[C@H](NC(=O)[C@@H](CCCN)NC(=O)[C@@H](CC(C)C)NC(=O)[C@@H](Cc1ccccc1)NC(=O)[C@H](N)Cc1ccccc1)C(N)=O [Compound (80)] (H-[dF][dF][dL][dOrn]K([dOrn-dL-dF-dF])-NH2)	8.89	91	9.60	
CC(C)C[C@@H](NC(=O)[C@@H](Cc1ccccc1)NC(=O)[C@H](N)Cc1ccccc1)C(=O)N[C@H](CCCN)C(=O)NCCCC[C@H](NC(=O)[C@H](N)CCCN)C(=O)N1CCNCC1 [Compound (81)]	10.30	96	9.55	96
CC(C)C[C@@H](NC(=O)[C@@H](Cc1ccccc1)NC(=O)[C@H](N)Cc1ccccc1)C(=O)N[C@H](CCCN)C(=O)N1CCOC(C(=O)O)C1 (stereo partly drawn) [Compound (90), D-Phe-D-Phe-D-Leu-D-Orn-[R/S-2-carboxymorpholine]-OH]	9.75	100	9.80	100
